# Patent US6492329B1, “Cytokine and hemopoietic factor endogenous production enhancer and methods of use thereof” (Novelos Therapeutics, Inc., priority 1995, dated 2002)
# “And” between values parts separate entries of the source, which are not always exact repeats. Equal entries are not always repeated.
# Assays:
# [1] = test system: CBA mice with cyclophosphamide-induced hemo- and immunodepression; assay: Cyclophosphamide-induced hemo- and immunodepression in mice; format: in vivo, mouse; settings: 5 mg/kg IP daily for 5 days
# Experimental: The study was designed to evaluate the effect of a 5-day long administration of the test articles on the capability of the CP-treated murine splenocytes to produce IL-2 and GM-CSF in vitro. In addition, the number of blood leukocytes and lymphocytes and the bone marrow cellularity (number of karyocytes) were determined at 8 days after CP administration. Some animals receiving CP were then challenged with sheep red blood cells (SRBC), and the humoral immune response to the antigen was evaluated.
# Male CBA mice (18 to 20 g body weight) were given a single intraperitoneal injection of CP in a dose of 50 mg/kg. […] Group description is represented below.
# Injections were performed during 5 days: once a day, daily.
# Twenty four hours after the completion of 5 day treatment course (on the 8th day after the CP injection), mice were euthanized and splenocyte cultures were aseptically prepared for assessment of spontaneous production of IL-2 and GM-CSF by the spleen lymphocytes in vitro.
# Simultaneously, blood and marrow samples were collected for blood leukocyte and lymphocyte, and marrow nucleated cell counted,
# Serum samples from immunized animals were tested on level of SRBC agglutinins (the day 8 after the CP injection, and the day 7 after the immunization).
# [2] = test system: CBA mice with radiation-induced hemo- and immunodepression; assay: Radiation-induced hemo- and immunodepression in mice; format: in vivo, mouse; settings: mice irradiated 1 Gy, 5 mg/kg IP daily for 7 days, day 8 post-exposure
# Experimental: The study was designed to evaluate efficacy of 7-day daily administration of the test articles (with the dosing started 2 hours post-exposure) on the capability of the splenocytes from mice exposed to radiation to produce IL-2 and GM-CSF in vitro. In addition, the number of blood leukocytes and lymphocytes and the spleen and bone marrow cellularity (number of karyocytes), as well as splenic and medullary colony-stimulating capacity, were determined at 8 days post-exposure.
# Male CBA mice (18 to 20 g body weight) were irradiated with single dose of 180 kV X-rays filtered with 0.5 mm Cu (at 15 mA, distance—70 cm, duration 2 min. and 28 sec.).
# The total absorbed dose comprised approximately 1 Gy. Five groups of animals (with no less than 12 mice in each) were formed. Group description is represented below.
# Injections were performed during 7 days: once a day, daily.
# Twenty four hours after the completion of 7 day treatment course (on the 8th day after the irradiation). mice were euthanized and splenocyte cultures were aseptically prepared for assessment of spontaneous production of IL-2 and GM-CSF by the spleen lymphocytes in vitro.
# Simultaneously, blood, spleen and marrow samples were collected for blood leukocyte and lymphocyte, and spleen and marrow nucleated cell counting.
# Additionally, hemopoietic colony formation ability of spleen and bone marrow cells was, assessed by the method of direct count of colony forming units (CFU) in the spleens of irradiated CBA mice receiving intravenously spleen or bone marrow cells obtained from animals of control or test groups.
# [3] = cyclophosphamide-treated mice, day 8 after CP
structure (smiles),measurement,setting,value
"N[C@@H](CCC(=O)N[C@@H](CS)C(=O)NCC(=O)O)C(=O)O [GSH, γ-glutamyl-cysteinyl-glycine]",SRBC agglutinin titer,"[1]; cyclophosphamide-treated mice immunized with SRBC, day 7 after immunization",1.94 log2 and 1.62 log2 and 2.09 log2
same,Blood leukocyte count,[1]; [3],5.2 ± 10^9/L and 6.3 ± 10^9/L and 6.2 ± 10^9/L
same,Blood lymphocyte count,[1]; [3],4.3 ± 10^9/L and 4.6 ± 10^9/L and 5.31 ± 10^9/L
same,Bone marrow nucleated cell number,[1]; [3],32.2 ± 10^6/L and 36.4 ± 10^6/L
same,IL-2 production by splenocytes,[1]; [3],17.2 U/mL and 15.3 U/mL and 20.3 U/mL
same,Blood leukocyte count,[2],4.8 ± 10^9/L and 5.7 ± 10^9/L and 4.95 ± 10^9/L
same,Blood lymphocyte count,[2],3.4 ± 10^9/L and 4.6 ± 10^9/L and 4.0 ± 10^9/L
same,Bone marrow CFU,[2],22.1 and 25.6 and 25.3
same,Bone marrow nucleated cell number,[2],17.2 ± 10^6/L and 24.7 ± 10^6/L and 22.5 ± 10^6/L
same,IL-2 production by splenocytes,[2],8.6 U/mL and 9.3 U/mL and 9.9 U/mL
same,Spleen CFU,[2],56.3 and 66.3 and 59.8
same,Spleen nucleated cell number,[2],4.3 ± 10^7/L and 6.93 ± 10^7/L and 5.5 ± 10^7/L
